Results reported in patent publication US6323001A, “Increasing the trehalose content of organisms by transforming them with combinations of the structural genes for trehalose synthase” (BTG International Ltd., priority 1994, dated 2001).
Like-named read-outs stand apart in the source and are kept apart here.

What was measured:
[1] = system: extract of X2180 yeast; experiment: Synthesis of [14C]-trehalose from [U-14C]-G6P by extract of wild-type yeast; assay type: biochemical, S. cerevisiae; conditions: 2.5 mM ADPG
[2] = biological target: Tre6Pase activity of truncated trehalose synthase (Saccharomyces cerevisiae, UniProt P31688); experiment: Tre6Pase assay of truncated trehalose synthase; assay type: biochemical, baker's yeast
Description: (§1) With microbial materials, Tre6Pase and Tre6P synthase standard assays and other kinetic measurements were made as described by Londesborough & Vuorio [(1991) loc. cit.] except that the standard Tre6P synthase assay mixture contained 5 mM F6P unless stated otherwise.
(§2) Truncated trehalose synthase containing the short (57 kDa) chain and the 86 and 93 kDa long chain fragments was prepared according to the method of Londesborough & Vuorio (1991) loc. cit.] for proteolytically activated TPS/P complex. Tre6P synthase and Tre6Pase activities were assayed as described by Londesborough & Vuorio [(1991) loc. cit.]. [N-ethyl-1-^14C]-maleimide (ethyl-labelled NEM; 40 mCi/mmol) was NEC-454 from New England Nuclear. N-ethyl-[2,3-^14 C]-maleimide (ring-labelled NEM; 6 mCi/mmol) was CFA 293 from Amersham International. Both were obtained as solutions in n-pentane and the manufacturer's stated specific activities were assumed to be correct. Unlabelled N-ethyl-maleimide (NEM) was E-3876 from Sigma. It was dissolved in 25 mM HEPES pH 7.0 immediately before use and standardized by absorption measurements at 305 nm, assuming an E^mM of 0.62.
(§3) In one experiment, 2.0 μl of 2.4 mM ethyl-labelled NEM was mixed with 150 μl of gel-filtered enzyme and incubated at 23° C. Samples (10 μl) taken at various times up to 190 min were mixed with 60 μl of Laemmli sample buffer (the mercapto-ethanol in this buffer should destroy residual NEM), boiled for 5 min and subjected to SDS-PAGE. At closely similar times (and also at 23 h) other samples (10 μl) were mixed with 100 μl (for Tre6P synthase) or 700 μl (for Tre6Pase) of 5 mg BSA/ml 25 mM HEPES pH 7.0 containing 2 mM MgCl2, 1 mM EDTA, 0.2 M NaCl and 1 mM dithiothreitol (the dithiothreitol should destroy residual NEM) and assayed for Tre6P synthase and Tre6Pase.
(§4) Truncated trehalose synthase was prepared as described by Londesborough & Vuorio [(1991) loc. cit.] and contained the 57 kDa short chain and 86 and 93 kDa fragments of the long chain. Intact trehalose synthase was prepared as in Example 1. Kinetic assays were done at 30° C. as described in General Methods and Materials.

[3] = biological target: T1, Tre6P synthase activity of truncated trehalose synthase (Saccharomyces cerevisiae, UniProt Q00764); experiment: Tre6P synthase assay of truncated trehalose synthase; assay type: biochemical, baker's yeast
T1 construct: contained the 57 kDa short chain; made in house; host or cells: baker's yeast (native enzyme, proteolytically truncated during purification)
T1 sequence (Q00764 1-495): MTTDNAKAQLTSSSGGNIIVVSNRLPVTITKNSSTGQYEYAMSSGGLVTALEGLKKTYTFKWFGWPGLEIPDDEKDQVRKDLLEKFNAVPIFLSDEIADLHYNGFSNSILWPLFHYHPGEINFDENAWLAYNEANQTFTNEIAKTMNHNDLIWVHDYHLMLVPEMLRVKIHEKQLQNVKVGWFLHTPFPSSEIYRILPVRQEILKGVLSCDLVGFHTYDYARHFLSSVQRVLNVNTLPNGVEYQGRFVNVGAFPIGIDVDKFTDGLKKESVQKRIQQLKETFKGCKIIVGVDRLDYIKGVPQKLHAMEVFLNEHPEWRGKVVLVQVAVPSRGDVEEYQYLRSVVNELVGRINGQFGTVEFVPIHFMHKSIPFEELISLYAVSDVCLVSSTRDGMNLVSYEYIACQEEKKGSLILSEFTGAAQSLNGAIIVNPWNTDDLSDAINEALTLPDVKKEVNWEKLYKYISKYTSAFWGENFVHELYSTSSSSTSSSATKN
Description: as §1, §2, §4

[4] = biological target: T2, Tre6P synthase activity of intact trehalose synthase (Saccharomyces cerevisiae, UniProt Q00764); experiment: Tre6P synthase assay of intact trehalose synthase; assay type: biochemical, baker's yeast; conditions: 5 or 2.5 mM; 1 mM F6P at 1.3 mM phosphate
T2 construct: Intact trehalose synthase was purified from commercial baker's yeast; made in house; host or cells: commercial baker's yeast (native enzyme purified, not recombinant)
Description: as §1
Removal of the N-terminal 325 or so amino acids from the 123 kDa long chain of intact trehalose synthase by treatment with trypsin in vitro produces an enzyme with catalytic properties like those of the truncated enzyme purified by Londesborough & Vuorio [(1991) loc. cit.]. In one experiment intact trehalose synthase (0.28 Tre6P synthase units, ≈9.4 μg) was incubated with or without 0.5 μg of trypsin at 30° C. in 250 μl of 13 mM HEPES pH 7.0 containing 1 mM MgCl2, 0.5 mM EDTA, 0.5 mM dithiothreitol, 0.2 M NaCl and 0.5 mM benzamidine. Its Tre6P synthase activity was determined at intervals using standard assay mixtures (containing 5 mM F6P) containing no or 4 mM K phosphate pH 6.8, and samples were prepared for SDS-PAGE analysis immediately before and 48 min after addition of the trypsin.
as §4

[5] = biological target: T3, 93 and 86 kDa long chain fragments of truncated trehalose synthase (Saccharomyces cerevisiae, UniProt P38427); experiment: Labelling of truncated trehalose synthase with [14C]-NEM; assay type: binding, baker's yeast; conditions: for NEM entered the long chain fragments: 32 μM ethyl-labelled NEM; for NEM incorporated into long chain fragments at complete loss of Tre6Pase: per mole of truncated trehalose synthase, ring- and ethyl-labelled NEM
T3 construct: 93 kDa band may also hold TPS2 fragment
Description: as §3
After electrophoresis, the upper (cathode) buffer, containing most of the added radioactivity, was completely removed before disassembling the apparatus. The gel was then fixed, stained and destained as described by Laemmli [(1970) Nature, London 227, 680-685] and dried. […] The Coomassie blue stained bands and adjacent, empty areas (as blanks) were cut out of the dried gel (in later experiments, they were cut from undried gels), broken up and extracted overnight with 1 ml of 5% SDS in pre-blanked scintillation vials. Then 10 ml of a toluene/Triton X100-based scintillant was added, and the tubes were repeatedly counted using a wide energy window to minimise quench effects. After 10 h constant counting levels were reached. Excess radioactivity was calculated by subtracting a blank value obtained from empty regions of the gel.

T3 sequence (P38427 336-1098): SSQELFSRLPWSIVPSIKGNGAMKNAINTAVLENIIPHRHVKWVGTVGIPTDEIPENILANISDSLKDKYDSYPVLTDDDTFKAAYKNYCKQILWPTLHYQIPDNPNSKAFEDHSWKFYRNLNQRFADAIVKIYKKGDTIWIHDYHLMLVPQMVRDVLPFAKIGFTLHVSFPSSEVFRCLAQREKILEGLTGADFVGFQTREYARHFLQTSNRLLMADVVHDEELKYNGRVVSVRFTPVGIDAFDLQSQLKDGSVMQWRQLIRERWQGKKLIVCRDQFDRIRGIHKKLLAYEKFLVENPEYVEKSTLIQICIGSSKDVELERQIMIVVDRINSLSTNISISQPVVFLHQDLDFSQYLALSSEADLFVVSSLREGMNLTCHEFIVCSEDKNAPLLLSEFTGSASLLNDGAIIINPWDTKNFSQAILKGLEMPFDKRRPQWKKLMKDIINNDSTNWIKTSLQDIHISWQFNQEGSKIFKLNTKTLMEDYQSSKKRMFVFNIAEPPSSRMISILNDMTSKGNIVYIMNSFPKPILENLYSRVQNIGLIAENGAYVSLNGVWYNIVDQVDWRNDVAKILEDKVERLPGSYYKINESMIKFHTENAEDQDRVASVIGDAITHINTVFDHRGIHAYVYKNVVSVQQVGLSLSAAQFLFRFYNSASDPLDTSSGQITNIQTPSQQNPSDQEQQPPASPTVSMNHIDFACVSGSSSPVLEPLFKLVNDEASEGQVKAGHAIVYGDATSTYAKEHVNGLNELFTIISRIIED
T2 sequence (P31688 whole entry, one chain of several): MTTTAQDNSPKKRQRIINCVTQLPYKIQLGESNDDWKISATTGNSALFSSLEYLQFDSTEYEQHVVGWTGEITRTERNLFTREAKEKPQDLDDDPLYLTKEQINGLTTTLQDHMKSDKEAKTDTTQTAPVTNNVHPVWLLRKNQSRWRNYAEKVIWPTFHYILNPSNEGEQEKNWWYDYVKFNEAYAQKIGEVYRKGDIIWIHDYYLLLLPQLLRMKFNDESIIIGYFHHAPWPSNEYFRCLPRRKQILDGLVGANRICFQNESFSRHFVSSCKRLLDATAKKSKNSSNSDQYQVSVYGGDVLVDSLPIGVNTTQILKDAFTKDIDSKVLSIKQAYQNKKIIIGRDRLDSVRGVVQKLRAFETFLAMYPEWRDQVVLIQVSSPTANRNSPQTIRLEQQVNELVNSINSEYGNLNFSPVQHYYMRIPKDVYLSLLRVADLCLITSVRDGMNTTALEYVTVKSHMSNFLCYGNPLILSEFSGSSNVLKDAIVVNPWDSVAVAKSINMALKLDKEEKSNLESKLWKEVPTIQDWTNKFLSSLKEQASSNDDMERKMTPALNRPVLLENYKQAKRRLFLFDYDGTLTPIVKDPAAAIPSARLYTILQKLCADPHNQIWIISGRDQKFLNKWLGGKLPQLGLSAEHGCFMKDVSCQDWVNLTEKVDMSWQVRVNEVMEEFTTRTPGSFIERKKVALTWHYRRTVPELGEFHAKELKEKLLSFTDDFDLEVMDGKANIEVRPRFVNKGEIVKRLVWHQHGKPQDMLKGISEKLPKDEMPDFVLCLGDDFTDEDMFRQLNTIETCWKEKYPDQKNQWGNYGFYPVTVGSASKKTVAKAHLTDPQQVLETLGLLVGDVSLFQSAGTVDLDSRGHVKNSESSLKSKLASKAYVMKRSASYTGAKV
T2 sequence (P38427 whole entry, one chain of several, further chain): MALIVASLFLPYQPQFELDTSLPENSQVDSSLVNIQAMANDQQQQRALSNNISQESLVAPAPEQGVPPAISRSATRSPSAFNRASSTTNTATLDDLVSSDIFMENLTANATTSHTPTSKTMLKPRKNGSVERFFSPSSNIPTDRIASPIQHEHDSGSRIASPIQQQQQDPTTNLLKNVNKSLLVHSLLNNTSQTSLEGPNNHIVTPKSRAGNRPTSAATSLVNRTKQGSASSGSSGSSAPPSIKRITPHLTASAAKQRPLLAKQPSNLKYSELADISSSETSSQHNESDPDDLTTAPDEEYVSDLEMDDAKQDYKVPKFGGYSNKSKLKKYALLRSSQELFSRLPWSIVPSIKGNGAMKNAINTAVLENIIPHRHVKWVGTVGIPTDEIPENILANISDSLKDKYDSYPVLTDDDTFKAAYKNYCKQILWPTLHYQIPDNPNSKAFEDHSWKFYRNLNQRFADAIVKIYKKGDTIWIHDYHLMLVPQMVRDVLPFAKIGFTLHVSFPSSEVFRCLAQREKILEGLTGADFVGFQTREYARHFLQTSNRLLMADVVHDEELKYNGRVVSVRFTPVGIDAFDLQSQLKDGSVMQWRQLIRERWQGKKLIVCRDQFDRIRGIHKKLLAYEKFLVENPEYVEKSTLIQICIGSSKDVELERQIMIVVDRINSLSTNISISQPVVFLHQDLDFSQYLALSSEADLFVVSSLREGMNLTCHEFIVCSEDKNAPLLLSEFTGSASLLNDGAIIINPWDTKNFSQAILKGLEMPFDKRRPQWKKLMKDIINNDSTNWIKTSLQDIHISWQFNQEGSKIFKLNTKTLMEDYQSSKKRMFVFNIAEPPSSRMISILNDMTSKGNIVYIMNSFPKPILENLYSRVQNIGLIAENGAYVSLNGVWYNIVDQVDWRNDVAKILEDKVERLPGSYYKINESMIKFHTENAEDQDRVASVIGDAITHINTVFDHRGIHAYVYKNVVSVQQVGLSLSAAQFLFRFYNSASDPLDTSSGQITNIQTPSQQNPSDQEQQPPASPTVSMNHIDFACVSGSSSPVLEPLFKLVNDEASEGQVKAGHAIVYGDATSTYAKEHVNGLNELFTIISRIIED
Chain of Tre6Pase activity of truncated trehalose synthase (P31688 whole entry, one chain of several, the tested form may be a part): as the sequence (P31688 whole entry, one chain of several) above
Chain of Tre6Pase activity of truncated trehalose synthase (P38427 336-1098, one chain of several, further chain): as the sequence (P38427 336-1098) above

Nc1ncnc2c1ncn2[C@@H]1O[C@H](COP(=O)(O)OP(=O)(O)O[C@H]2O[C@H](CO)[C@@H](O)[C@H](O)[C@H]2O)[C@@H](O)[C@H]1O [ADPG, adenosine 5'-diphosphoglucose]
effect on rate of appearance of radioactivity [1]: did not cause any significant increase

O=C(O)c1cc(SSc2ccc([N+](=O)[O-])c(C(=O)O)c2)ccc1[N+](=O)[O-] [DTNB, dithiodinitro-benzoate]
inhibition at 900 µM ([2]; 10 min, read-out: Tre6Pase lost, 0,9 mM DTNB, 10 min): > 95%
inhibition at 900 µM ([3]; 10 min, 0,9 mM DTNB, 10 min, read-out: Tre6P synthase lost): < 28%

O=C(COP(=O)(O)O)[C@@H](O)[C@H](O)[C@H](O)CO [Fructose-1-phosphate]
inhibition of Tre6P synthase activity [4]: about 25%

CCN1C(=O)C=CC1=O [NEM, N-ethyl-maleimide]
inhibition at 32 µM ([2]; 0.175 h, read-out: initial Tre6Pase lost, 32 μM ethyl-labelled NEM, 23° C., 10.5 min): 30%
inhibition at 32 µM ([2]; 190 min, read-out: initial Tre6Pase lost, 32 μM ethyl-labelled NEM, 23° C., 190 min): 56%
inhibition at 1900 µM ([2]; read-out: loss of Tre6Pase activity, 1.9 mM NEM, 24° C., about 0.17 mM dithiothreitol): ≥ 98%
NEM entered the long chain fragments ([5]; 10.5 min): 0.20 moles per mole (150 Kg) of enz
NEM entered the long chain fragments ([5]; 190 min): 0.32 moles per mole (150 Kg) of enz
NEM incorporated into long chain fragments at complete loss of Tre6Pase [5]: less than 1 mole
NEM incorporated into long chain fragments at complete loss of Tre6Pase ([5]; listed as 14C-N-ethylmaleimide): about 1 mole
inhibition at 1900 µM ([3]; 1.9 mM NEM, 24° C., about 0.17 mM dithiothreitol, read-out: loss of Tre6P synthase activity): ≤ 24%

O=C(COP(=O)(O)O)[C@@H](O)[C@H](O)[C@H](O)COP(=O)(O)O [fructose-1,6-bisphosphate]
inhibition of Tre6P synthase activity [4]: about 25%

O=P(O)(O)OC[C@H]1O[C@@](CO)(OP(=O)(O)O)[C@@H](O)[C@@H]1O [fructose-2,6-bisphosphate]
inhibition of Tre6P synthase activity [4]: about 25%

O=P(O)(O)O[C@H]1O[C@H](CO)[C@@H](O)[C@H](O)[C@H]1O [glucose-1-phosphate]
inhibition of Tre6P synthase activity [4]: about 25%
